Test results taken from the supplement of paper PMC3974653.
Where a name gives a salt, the structure may show the parent alone.

What follows are molecules tested on MTT (mouse pheochromocytoma) (assay: IC50 of cell viability (ATP content)). Settings: (24 or 48 h).
Method in brief: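 CellTiter-Glo ATP luminescence, read after 15 minutes, was used to assess MTT mouse pheochromocytoma cells treated for 24 or 48 hrs with library compounds (final 0.5 nM to 46 µM, 8 concentrations). The cells had been plated at 5 µl of 200,000 cells/ml per well in white 1536-well plates in DMEM with 5% FBS and 1% horse serum and cultured overnight at 37°C, 5% CO2. Normalisation set positive-control wells to 100% and DMSO wells to 0%. The IC50 was then determined by four-parameter logistic fitting.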

| Compound | IC50 of cell viability |
| --- | --- |
| CNC(=O)OCc1cccc(COC(=O)NC)n1 [PYRIDINOL CARBAMATE] | > 46 µM |
| CN(C)C(=O)Oc1ccc[n+](C)c1.[Br-] [PYRIDOSTIGMINE BROMIDE] | > 46 µM |
| Cc1ncc(CO)c(C=O)c1O [PYRIDOXAL HYDROCHLORIDE] | > 46 µM |
| Cc1ncc(COP(=O)(O)O)c(C=O)c1O [PYRIDOXAL PHOSPHATE] | > 46 µM |
| Cc1ncc(COP(=O)(O)O)c(CN)c1O [PYRIDOXAMINE PHOSPHATE] | > 46 µM |
| Cc1ncc(CSSCc2cnc(C)c(O)c2CO)c(CO)c1O [PYRITHIOXINE] | > 46 µM |
| CCC1(CC)C(=O)N\C=C/C1=O [PYRITHYLDIONE] | > 46 µM |
| O=C1CC[C@@H](C(=O)O)N1 [PYRROLIDONE CARBOXYLIC ACID] | > 46 µM |
| O=[N+]([O-])c1c(Cl)cccc1-c1c[nH]cc1Cl [PYRROLNITRIN] | > 46 µM |
| CCCCC(CC)COC(=O)c1ccc(N(C)C)cc1 (configuration not stated) [Padimate O] | > 46 µM |
| CC(C)CCOC(=O)c1ccc(N(C)C)cc1 [Padimato] | > 46 µM |
| CCCCCCCCCCCCCCCC(=O)NCCO [Palmitoylethanolamide] | > 46 µM |
| NCCC(O)(P(=O)(O)O)P(=O)(O)O [Pamidronate disodium] | > 46 µM |
| O=C(O)c1cc2ccccc2c(Cc2c(O)c(C(=O)O)cc3ccccc23)c1O [Pamoic acid] | > 46 µM |
| COc1ccc(Cc2nccc3cc(OC)c(OC)cc23)cc1OC [Papaverine hydrochloride] | > 46 µM |
| C[C@@H]1C[C@H]2C3C[C@H](F)\C4=C\C(=O)\C=C/C4(C)C3[C@@H](O)CC2(C)[C@@]1(O)C(=O)COC(C)=O (some centres not stated) [Paramethasone acetate] | > 46 µM |
| CCC(=O)Nc1ccc(O)cc1 [Parapropamol] | > 46 µM |
| CCC(=O)[N-]S(=O)(=O)c1ccc(-c2c(-c3ccccc3)noc2C)cc1 [Parecoxib sodium] | > 46 µM |
| C#CCN(C)Cc1ccccc1 [Pargyline hydrochloride] | > 46 µM |
| C[C@H](/C=C/[C@H](C)C(C)(C)O)[C@H]1CC[C@H]2/C(=C/C=C3C[C@@H](O)C[C@H](O)C3)CCC[C@]12C [Paricalcitol] | > 46 µM |
| Fc1ccc(C2CCNCC2COc2ccc3c(c2)OCO3)cc1 (configuration not stated) [Paroxetine] | > 46 µM |
| Nc1ccc(C(=O)[O-])c(O)c1 [Pasiniazid] | > 46 µM |
| Cc1ccc(Nc2nccc(N(C)c3ccc4c(C)n(C)nc4c3)n2)cc1[S+](N)(=O)[O-] [Pazopanib] | > 46 µM |
| CN1CCCC(CN2c3ccccc3Sc3ccccc32)C1 (configuration not stated) [Pecazina] | > 46 µM |
| CC(C)(C)NC[C@@H](O)COc1ccccc1C1CCCC1 [Penbutolol sulfate] | > 46 µM |
| OC1(c2ccc(Cl)c(C(F)(F)F)c2)CCN(CCCC(c2ccc(F)cc2)c2ccc(F)cc2)CC1 [Penfluridol] | > 46 µM |

| Compound | IC50 of cell viability |
| --- | --- |
| Nc1c(Cl)c(Cl)c(Cl)c(Cl)c1Cl [Pentachloroaniline] | > 46 µM |
| CSCCC(NC(=O)C(Cc1c[nH]c2ccccc12)NC(=O)CCNC(=O)OC(C)(C)C)C(=O)NC(CC(=O)O)C(=O)NC(Cc1ccccc1)C(N)=O (configuration not stated) [Pentagastrin] | > 46 µM |
| O=C(O)CN(CCN(CC(=O)O)CC(=O)O)CCN(CC(=O)O)CC(=O)O [Pentetic acid] | > 46 µM |
| OCC1(CO)COC(C(Cl)(Cl)Cl)OC1 [Penthrichloral] | > 46 µM |
| C[N+]1(CCCCC[N+]2(C)CCCC2)CCCC1.O=C([O-])[C@@H](O)[C@@H](O)C(=O)O.O=C([O-])[C@@H](O)[C@@H](O)C(=O)O [Pentolinium bitartrate] | > 46 µM |
| OC[C@H]1O[C@@H](n2cnc3c2N=CNC[C@H]3O)C[C@@H]1O [Pentostatin] | > 46 µM |
| CC(=O)CCCCn1c(=O)c2c(ncn2C)n(C)c1=O [Pentoxifylline] | > 46 µM |
| CN1CCN(CCCN2c3ccccc3Sc3ccccc32)CC1 [Perazine] | > 46 µM |
| FC(F)(F)C(F)(F)C(F)(F)C(F)(F)C(F)(F)C(F)(F)C(F)(F)C(F)(F)Br [Perflubron] | > 46 µM |
| O=[S+]([O-])(O)C(F)(F)C(F)(F)C(F)(F)C(F)(F)C(F)(F)C(F)(F)C(F)(F)C(F)(F)F [Perfluorooctane sulfonic acid] | > 46 µM |
| CCCCCCCCCCCCCCCCCCOP(=O)([O-])OC1CC[N+](C)(C)CC1 [Perifosine] | > 46 µM |
| CCC[C@@H](N[C@@H](C)C(=O)N1[C@@H](C(=O)O)C[C@@H]2CCCC[C@@H]21)C(=O)OCC [Perindopril] | > 46 µM |
| CN1CCN(C2=Nc3ccccc3Cc3ccccc32)CC1 [Perlapine] | > 46 µM |
| OCCN1CCN(CCCN2c3ccccc3Sc3ccc(Cl)cc32)CC1 [Perphenazine] | > 46 µM |
| CN1CCN(C(=O)C2CCCCC2)CC1 [Pexantel] | > 46 µM |
| C=C(Nc1ccc(OCC)cc1)Nc1ccc(OCC)cc1 [Phenacaine hydrochloride] | > 46 µM |
| CCOc1ccc(/N=C(\C)Nc2ccc(OCC)cc2)cc1 [Phenacaine hydrochloride] | > 46 µM |
| CCOc1ccc(NC(C)=O)cc1 [Phenacetin] | > 46 µM |
| CN1N(C(=O)/C=C1/C)C2=CC=CC=C2 [Phenazone] | > 46 µM |
| [K+].C[C@H](OC1=CC=CC=C1)C(=O)N[C@H]2[C@@H]3SC(C)(C)[C@@H]([N@@]3C2=O)C([O-])=O [Phenethicillin potassium salt] | > 46 µM |
| N=C(N)NC(=N)NCCc1ccccc1.[Cl-].[H+] [Phenformin HCl] | > 46 µM |
| N=C(N)NC(=N)NCCc1ccccc1 [Phenformin hydrochloride] | > 46 µM |
| O=C1c2ccccc2C(=O)C1c1ccccc1 [Phenindione] | > 46 µM |
| C[NH+](C)CCC(c1ccccc1)c1cccc[nH+]1.O=C([O-])CC(=O)[O-] (configuration not stated) [Pheniramine maleate] | > 46 µM |
| CC1NCCOC1c1ccccc1 (configuration not stated) [Phenmetrazine Hydrochloride] | > 46 µM |
| Oc1ccccc1 [Phenol] | > 46 µM |

| Compound | IC50 of cell viability |
| --- | --- |
| O=C1OC(c2ccc(O)cc2)(c2ccc(O)cc2)c2ccccc21 [Phenolphthalein] | > 46 µM |
| c1ccc2c(c1)Nc1ccccc1S2 [Phenothiazine] | > 46 µM |
| O=C(O)COc1ccccc1 [Phenoxy acetic acid] | > 46 µM |
| CC(COc1ccccc1)N[NH3+] (configuration not stated) [Phenoxypropazine] | > 46 µM |
| NC(=O)OCCCc1ccccc1 [Phenprobamate] | > 46 µM |
| CN1C(=O)C[C@H](c2ccccc2)C1=O [Phensuximide] | > 46 µM |
| CN(C)CCOc1ccccc1Cc1ccccc1.Nc1ccc(C(=O)O)c(O)c1 [Phentoloxamine and PAS] | > 46 µM |
| O=C(CCCCCCCCC#CI)Oc1ccccc1 [Phenyl 11-iodo-10-undecynoate] | > 46 µM |
| O=C(Oc1ccccc1)c1ccccc1O [Phenyl salicylate] | > 46 µM |
| CCCCC1C(=O)N(c2ccccc2)N(c2ccccc2)C1=O [Phenylbutazone] | > 46 µM |
| C[C@H](N)[C@@H](O)c1ccccc1 [Phenylpropanolamine hydrochloride] | > 46 µM |
| COP(=S)(OC)SCN1C(=O)c2ccccc2C1=O [Phosmet] | > 46 µM |
| O=C(O)CP(=O)(O)O [Phosphonoacetic acid] | > 46 µM |
| O=P(O)(O)OP(=O)(O)O [Phosphotex] | > 46 µM |
| CCOP(=S)(OCC)O/N=C(\C#N)c1ccccc1 [Phoxim] | > 46 µM |
| CC1=C(C/C=C(\C)CCCC(C)CCCC(C)CCCC(C)C)C(=O)c2ccccc2C1=O (configuration not stated) [Phytonadione] | > 46 µM |
| NNc1nnc(Cc2ccncc2)c2ccccc12 [Picodralazine] | > 46 µM |
| NCc1cccnc1 [Picolamina] | > 46 µM |
| OCc1ccccn1 [Piconol] | > 46 µM |
| O=S(=O)([O-])Oc1ccc(C(c2ccc(OS(=O)(=O)[O-])cc2)c2ccccn2)cc1 [Picosulfate sodium] | > 46 µM |
| C=C(C)[C@@H]1C2OC(=O)C1[C@]1(O)C[C@H]3O[C@]34C(=O)O[C@H]2[C@]14C.CC(C)(O)[C@@H]1C2OC(=O)[C@@H]1[C@]1(O)C[C@H]3O[C@]34C(=O)O[C@H]2[C@]14C [Picrotoxin] | > 46 µM |
| O=C1CC[C@@H](C(=O)N2CSC[C@H]2C(=O)O)N1 [Pidotimod] | > 46 µM |
| C/C(=N\O)c1ccc(OCC(=O)N2CCCCC2)cc1 [Pifoxime] | > 46 µM |
| O=C1CCCCC1CN1CCCCC1 (configuration not stated) [Pimeclone] | > 46 µM |
| CC(=O)O[C@H]1C[C@@H]2CC[C@@H]3[C@H](CC[C@]4(C)[C@H](OC(C)=O)[C@@H](N5CC[N+](C)(C)CC5)C[C@@H]34)[C@@]2(C)C[C@@H]1N1CC[N+](C)(C)CC1 [Pipecuronium] | > 46 µM |
